{"source": "patent US11401264B2", "about": "“Heterocyclic compound” (Orizuru Therapeutics, Inc., priority 2018, dated 2022)", "test_system": "cardiomyocytes from human iPS cell lines 409B2", "assay": "Experimental Example 4: membrane potential analysis (FluoVolt), beats per minute", "type": "cell-based", "conditions": "treated from 25th day, measured on 28th day; n = 3; DMSO control 70.7", "experimental": "For analysis of electrophysiological function of cardiomyocytes, humans iPS cell lines 409B2 (prepared from episomal vector (pCXLE-hOCT3/4-shp53-F, pCXLE-hSK, pCXLE-hUL) using HDF1388 purchased from Cell Applications, Inc (reference literature; Okita et al., Nat Methods. 8(5):409-12. (2011))) were used.\nThe maintenance culture of the above-mentioned iPS cell lines was carried out by a conventional method (Takahashi K, et al. Cell. 131: 861-72, 2007 and Nakagawa M, et al. Nat Biotechnol. 26: 101-6, 2008).\nFor differentiation induction into cardiomyocytes, the iPS cell lines were treated with CTK solution (ReproCELL) for 2 minutes, the solution was removed, and then the iPS cell lines were treated with Accumax (Innovative Cell Technologies) for 5 minutes, and the cells were dissociated into the single cell by pipetting. The cells were collected by centrifugation (1,000 rpm, 5 min), and seeded on low attachment 96 well dish (Corning) by 5000 cells/70 μL/well, and cultured in a medium prepared by adding 1% L-glutamine, transferrin 150 μg/mL, ascorbic acid 50 μg/mL (Sigma), monothioglycerol 4×10^−4 M, 10 μM Rock inhibitor (Y-27632), 2 ng/mL BMP4 (R&D) and 0.5% Matrigel (Growth Factor Reduced) to StemPro-34 SFM (ThermoFisher) at 37° C., under 5% oxygen condition to form embryoid bodies (0 day). […]"}
{"smiles": "O=C1c2ccc(N3CCOCC3)cc2CN1c1ccc2[nH]c(-c3ccc(Br)cc3)nc2c1", "note": "[Example 8, 2-(2-(4-bromophenyl)-1H-benzimidazol-5-yl)-5-(morpholin-4-yl)isoindolin-1-one]", "values": [{"measurement": "beats (mean)", "value": 32.0, "unit": "beats per minute"}]}
